# Like-named read-outs stand apart in the source and are kept apart here.
# T1: Phosphoethanolamine methyltransferase (PfPMT) (Plasmodium falciparum, UniProt Q8IDQ9)
# T1 construct: gene PMT; recombinant PfPMT expressed from pET-24a in BL21 (DE3), ~30 kDa
# T1 sequence (Q8IDQ9 1-266): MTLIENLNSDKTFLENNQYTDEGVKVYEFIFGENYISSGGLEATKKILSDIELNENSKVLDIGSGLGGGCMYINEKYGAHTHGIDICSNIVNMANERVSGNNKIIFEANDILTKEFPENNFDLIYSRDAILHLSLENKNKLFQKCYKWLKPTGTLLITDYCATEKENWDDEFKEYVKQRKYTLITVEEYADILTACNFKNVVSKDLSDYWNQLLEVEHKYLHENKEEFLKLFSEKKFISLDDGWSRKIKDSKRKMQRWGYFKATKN
# B1: Phosphoethanolamine methyltransferase (PfPMT) (Plasmodium falciparum 3D7) (protein)
# chain: T1 sequence (Q8IDQ9 1-266)
# notes: recombinant PfPMT expressed from pET-24a in BL21 (DE3), ~30 kDa
# Columns and labels:
# [1] = biological target: T1, Phosphoethanolamine methyltransferase (PfPMT); test: enzyme-coupled SAM methyltransferase colorimetric assay ([…] nm), Michaelis-Menten kinetics with varied pEth; type: biochemical
# [2] = substrate: NCCOP(=O)(O)O; test: purified protein; type: biochemical, Plasmodium falciparum; conditions: SAM substrate (phosphobase) site
molecule,measurement,setting,value
"COc1ccc(CCNC(=O)CNCC2CCCO2)cc1OC (stereo not drawn) [ASN.3, N-[2-(3,4-Dimethoxy-phenyl)-ethyl]-2-[(tetrahydro-furan-2-ylmethyl)-amino]-acetamide]",Ki,[1]; read-out: Ki,2.2 µM
"NC(Cc1cc(=O)nc(-c2ccccn2)[nH]1)c1ccc(F)cc1 (stereo not drawn) [ASN.1, 6-[Amino-2-(4-fluoro-phenyl)-ethyl]-pyridin-2-yl-1H-pyrimidin-4-one]",Ki,[1],1.2 µM
B1,Km,[2],52.4 µM

# Reference: publication PMC6705855, “Computational and experimental elucidation of Plasmodium falciparum phosphoethanolamine methyltransferase inhibitors: Pivotal drug target” (PLoS ONE, 2019)
